Laboratory results taken from the NIST ThermoML archive (doi:10.1021/je700699u).

Assay: cn = amount concentration of the nth substance listed, in mol/dm3
Details: 101 kPa, Liquid

N[C@@H](CC(=O)O)C(=O)[O-].[K+] [potassium (S)-2-amino-3-carboxypropanoate] + O
Details	mass density, 298.15 K [kg/m3]	mass density, 303.15 K [kg/m3]	mass density, 313.15 K [kg/m3]	mass density, 323.15 K [kg/m3]	mass density, 333.15 K [kg/m3]	viscosity, 298.15 K [mPa·s]	viscosity, 303.15 K [mPa·s]	viscosity, 313.15 K [mPa·s]	viscosity, 323.15 K [mPa·s]	viscosity, 333.15 K [mPa·s]
c1 = 0.255	1029	1027	1024	1020	1015	0.992	0.887	0.725	0.613	0.525
c1 = 0.47	1059	1057	1053	1049	1045	1.104	0.998	0.816	0.693	0.593
c1 = 0.708	1089	1087	1083	1079	1074	1.239	1.115	0.914	0.771	0.663
c1 = 0.979	1119	1117	1113	1109	1105	1.419	1.269	1.041	0.865	0.743
c1 = 1.208	1147	1145	1141	1137	1133	1.615	1.45	1.185	0.994	0.836
c1 = 1.449	1176	1173	1169	1166	1162	1.856	1.667	1.353	1.142	0.957

N[C@@H](CCC(=O)O)C(=O)[O-].[K+] [potassium (S)-2-amino-4-carboxybutanoate] + O
Details	mass density, 298.15 K [kg/m3]	mass density, 303.15 K [kg/m3]	mass density, 313.15 K [kg/m3]	mass density, 323.15 K [kg/m3]	mass density, 333.15 K [kg/m3]	viscosity, 298.15 K [mPa·s]	viscosity, 303.15 K [mPa·s]	viscosity, 313.15 K [mPa·s]	viscosity, 323.15 K [mPa·s]	viscosity, 333.15 K [mPa·s]
c1 = 0.248	1029	1027	1024	1019	1017	1.011	0.908	0.744	0.623	0.535
c1 = 0.493	1059	1057	1054	1049	1047	1.163	1.041	0.854	0.713	0.611
c1 = 0.733	1088	1086	1083	1078	1076	1.344	1.199	0.982	0.817	0.699
c1 = 1	1117	1116	1112	1107	1105	1.579	1.404	1.143	0.953	0.809
c1 = 1.24	1145	1143	1139	1134	1132	1.844	1.644	1.336	1.101	0.933
c1 = 1.469	1173	1171	1167	1162	1160	2.194	1.962	1.57	1.295	1.089

N=C(N)NCCC[C@H](N)C(=O)[O-].[K+] [potassium L-argininate] + O
Details	mass density, 298.15 K [kg/m3]	mass density, 303.15 K [kg/m3]	mass density, 313.15 K [kg/m3]	mass density, 323.15 K [kg/m3]	mass density, 333.15 K [kg/m3]	viscosity, 298.15 K [mPa·s]	viscosity, 303.15 K [mPa·s]	viscosity, 313.15 K [mPa·s]	viscosity, 323.15 K [mPa·s]	viscosity, 333.15 K [mPa·s]
c1 = 0.238	1021	1019	1016	1011	1007	1.026	0.917	0.75	0.63	0.539
c1 = 0.479	1043	1041	1037	1032	1027	1.215	1.098	0.886	0.738	0.632
c1 = 0.725	1064	1062	1058	1053	1048	1.431	1.276	1.035	0.856	0.723
c1 = 0.971	1087	1085	1080	1075	1069	1.882	1.553	1.244	1.019	0.848

N[C@@H](Cc1ccccc1)C(=O)[O-].[K+] [potassium L-phenylalaninate] + O
Details	mass density, 298.15 K [kg/m3]	mass density, 303.15 K [kg/m3]	mass density, 313.15 K [kg/m3]	mass density, 323.15 K [kg/m3]	mass density, 333.15 K [kg/m3]	viscosity, 298.15 K [mPa·s]	viscosity, 303.15 K [mPa·s]	viscosity, 313.15 K [mPa·s]	viscosity, 323.15 K [mPa·s]	viscosity, 333.15 K [mPa·s]
c1 = 0.25	1015	1014	1010	1005	1001	1.059	0.938	0.769	0.641	0.549
c1 = 0.496	1032	1031	1027	1022	1017	1.224	1.092	0.884	0.738	0.631
c1 = 0.745	1051	1049	1044	1039	1034	–	–	–	–	–
c1 = 0.746	–	–	–	–	–	1.441	1.279	1.032	0.852	0.72
c1 = 0.996	1067	1065	1060	1055	1049	1.695	1.495	1.194	0.98	0.823
c1 = 1.226	1084	1081	1077	1071	1066	–	–	–	–	–
c1 = 1.227	–	–	–	–	–	2.03	1.782	1.41	1.15	0.963
c1 = 1.453	1100	1097	1092	1087	1081	2.483	2.169	1.702	1.377	1.139

O=C([O-])[C@@H]1CCCN1.[K+] [potassium L-prolinate] + O
Details	mass density, 298.15 K [kg/m3]	mass density, 303.15 K [kg/m3]	mass density, 313.15 K [kg/m3]	mass density, 323.15 K [kg/m3]	mass density, 333.15 K [kg/m3]	viscosity, 298.15 K [mPa·s]	viscosity, 303.15 K [mPa·s]	viscosity, 313.15 K [mPa·s]	viscosity, 323.15 K [mPa·s]	viscosity, 333.15 K [mPa·s]
c1 = 0.507	1028	1027	1023	1019	1014	1.107	0.986	0.799	0.664	0.565
c1 = 1.01	1059	1057	1053	1048	1043	1.4	1.242	0.992	0.816	0.685
c1 = 1.523	1089	1087	1082	1077	1072	1.811	1.59	1.251	1.017	0.846
c1 = 2.01	1118	1115	1110	1105	1100	2.365	2.061	1.599	1.286	1.061
c1 = 2.521	1146	1144	1138	1133	1127	3.163	2.721	2.076	1.636	1.331
c1 = 2.983	1171	1168	1162	1156	1150	4.112	3.516	2.664	2.068	1.658
c1 = 3.448	1197	1194	1188	1182	1176	5.732	4.837	3.587	2.767	2.181

NCCCCCC(=O)[O-].[K+] [potassium Salt of 6-aminohexanoic acid] + O
Details	mass density, 298.15 K [kg/m3]	mass density, 303.15 K [kg/m3]	mass density, 313.15 K [kg/m3]	mass density, 323.15 K [kg/m3]	mass density, 333.15 K [kg/m3]	viscosity, 298.15 K [mPa·s]	viscosity, 303.15 K [mPa·s]	viscosity, 313.15 K [mPa·s]	viscosity, 323.15 K [mPa·s]	viscosity, 333.15 K [mPa·s]
c1 = 0.497	1024	1022	1018	1014	1009	1.191	1.058	0.854	0.706	0.599
c1 = 1.002	1049	1048	1044	1038	1034	1.608	1.418	1.126	0.913	0.762
c1 = 1.429	1072	1070	1067	1061	1057	2.152	1.882	1.497	1.199	0.987
c1 = 1.982	1098	1095	1089	1084	1078	3.091	2.669	2.035	1.608	1.307
c1 = 2.458	1119	1117	1111	1105	1098	4.445	3.796	2.85	2.211	1.768
c1 = 2.942	1141	1139	1132	1126	1118	6.601	5.573	4.112	3.145	2.458

NCCC(=O)[O-].[K+] [potassium Salt of B-alanine] + O
Details	mass density, 298.15 K [kg/m3]	mass density, 303.15 K [kg/m3]	mass density, 313.15 K [kg/m3]	mass density, 323.15 K [kg/m3]	mass density, 333.15 K [kg/m3]	viscosity, 298.15 K [mPa·s]	viscosity, 303.15 K [mPa·s]	viscosity, 313.15 K [mPa·s]	viscosity, 323.15 K [mPa·s]	viscosity, 333.15 K [mPa·s]
c1 = 0.496	1026	1024	1020	1017	1011	1.05	0.944	0.762	0.638	0.546
c1 = 1.003	1053	1053	1048	1043	1038	1.23	1.097	0.892	0.744	0.634
c1 = 1.492	1079	1078	1074	1070	1065	1.453	1.293	1.049	0.871	0.737
c1 = 2.019	1107	1106	1100	1096	1090	1.759	1.548	1.25	1.027	0.866
c1 = 2.492	1133	1131	1126	1121	1116	2.131	1.881	1.497	1.223	1.022
c1 = 2.964	1157	1155	1150	1145	1140	2.609	2.293	1.808	1.464	1.217
c1 = 3.417	1181	1179	1174	1169	1162	3.245	2.832	2.209	1.77	1.459
